According to patent publication US10160747B2, “Compounds and methods for kinase modulation, and indications therefor” (Plexxikon Inc., priority 2016, dated 2018):

Tests used:
[1] = target: T1, c-KIT (Homo sapiens, UniProt P10721); test: c-KIT recombinant enzyme kinase assay (AlphaScreen); format: biochemical; conditions: 100 ATP, 8 pt
T1 construct: purchased Millipore 14-559K
Protocol: (§1) In order to determine the effect of compounds on FLT3 catalytic activity, kinase assays using recombinant enzymes and AlphaScreen® technology have been established. The catalytic activity of c-kit activity was also measured to determine selectivity of the compounds. When the kinases are catalytically active, they phosphorylate a biotinylated peptide substrate on tyrosine residues. Using AlphaScreen® technology, the ability of the compounds to affect the catalytic activity of the kinases can be measured quantitatively. The peptide substrate is immobilized by the AlphaScreen® Streptavidin Donor beads and, upon phosphorylation by a tyrosine kinase, can bind to AlphaScreen® Anti-Phosphotyrosine (PY20) Acceptor beads. Upon excitation of these beads with laser light at 680 nm, singlet oxygen is produced. This singlet oxygen is rapidly quenched, unless the AlphaScreen® Anti-Phosphotyrosine (PY20) Acceptor beads are in close proximity, in which case a proximity signal can be measured at 580 nm. In the presence of catalytic activity, there is a very strong proximity signal. Selective kinase inhibitors affect a decrease in this proximity signal through a decrease in tyrosine phosphorylation of the peptide substrate.
(§2) The assay was performed as summarized below.
(§3) Poly (Glu4-Tyr) Peptide, biotin conjugate [Biotin-GG(EEEEY)10EE] (SEQ ID NO: 4)
(§4) Final concentration=30 nM
(§5) Adenosine Triphosphate (ATP)
(§6) Final concentration for IC50 determination=10 μM (FLT3-D835Y or FLT3-ITD) or 100 μM (c-KIT)
(§7) AlphaScreen® Phosphotyrosine (PY20) Assay Kit
(§8) Final concentration=10 μg/mL
(§9) Dilute compounds in DMSO to 20× final concentration.
(§10) Add 1 μL of compound to each well of 384 well reaction plate (Perkin Elmer #6005359).
(§11) Mix enzyme and Poly (Glu4-Tyr) Peptide substrate at 1.33× final concentration in assay buffer.
(§12) Mix ATP at 5× final concentration in assay buffer.
(§13) Add 15 μL enzyme/substrate mixture to the reaction plate.
(§14) Add 4 μL of ATP to the reaction plate.
(§15) Mix Streptavidin Donor beads at 6× final concentration in Stop/Detection buffer.
(§16) Add 5 μL Streptavidin Donor beads to the reaction plate. Centrifuge 1 minute, shake to mix, and incubate at room temperature for 20 minutes.
(§17) Mix Anti-Phosphotyrosine (PY20) Acceptor beads at 6× final concentration in Stop/Detection buffer.
(§18) Add 5 μL Anti-Phosphotyrosine (PY20) beads to the reaction plate.
(§19) Centrifuge 1 minute, shake to mix, and incubate at room temperature for 60 minutes.
(§20) Read plate on Wallac EnVision™ 2103 Multilabel Reader.

[2] = target: T2, FLT3-ITD (Homo sapiens, UniProt P36888); test: FLT3-ITD recombinant enzyme kinase assay (AlphaScreen); format: biochemical; conditions: 8 pt; read-out: FLT3_ITD 8 pt: IC50
T2 sequence (P36888 1-993): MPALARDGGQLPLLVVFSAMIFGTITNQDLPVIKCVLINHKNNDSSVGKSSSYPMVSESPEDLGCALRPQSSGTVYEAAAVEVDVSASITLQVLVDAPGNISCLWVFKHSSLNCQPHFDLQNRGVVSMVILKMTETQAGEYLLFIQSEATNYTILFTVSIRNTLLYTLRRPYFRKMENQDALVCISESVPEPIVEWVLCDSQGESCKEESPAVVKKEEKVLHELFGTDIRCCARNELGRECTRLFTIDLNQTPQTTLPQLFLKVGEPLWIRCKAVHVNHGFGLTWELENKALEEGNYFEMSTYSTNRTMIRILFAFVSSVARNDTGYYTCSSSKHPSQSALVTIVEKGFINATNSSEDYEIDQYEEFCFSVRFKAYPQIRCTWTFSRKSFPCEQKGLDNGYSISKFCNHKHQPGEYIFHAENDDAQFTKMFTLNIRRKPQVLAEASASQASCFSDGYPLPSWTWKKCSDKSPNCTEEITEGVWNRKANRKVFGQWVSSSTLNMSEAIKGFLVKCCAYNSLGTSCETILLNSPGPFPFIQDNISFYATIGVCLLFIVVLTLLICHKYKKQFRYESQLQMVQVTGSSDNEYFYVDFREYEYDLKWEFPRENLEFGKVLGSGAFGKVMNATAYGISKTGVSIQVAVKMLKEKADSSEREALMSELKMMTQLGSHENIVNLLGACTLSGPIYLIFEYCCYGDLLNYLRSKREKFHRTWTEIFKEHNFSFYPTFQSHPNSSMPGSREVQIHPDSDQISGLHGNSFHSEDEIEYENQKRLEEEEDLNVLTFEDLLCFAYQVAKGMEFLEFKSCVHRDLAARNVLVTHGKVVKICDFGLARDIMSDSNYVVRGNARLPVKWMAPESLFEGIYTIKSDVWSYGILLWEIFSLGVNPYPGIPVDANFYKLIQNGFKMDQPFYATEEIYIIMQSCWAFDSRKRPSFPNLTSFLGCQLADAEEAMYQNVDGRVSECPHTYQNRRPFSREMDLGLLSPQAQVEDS
Protocol: as §1, §2, §3, §4, §5, §6, §7, §8, §9, §10, §11, §12, §13, §14, §15, §16, §17, §18, §19, §20

T1 sequence (P10721 26-976): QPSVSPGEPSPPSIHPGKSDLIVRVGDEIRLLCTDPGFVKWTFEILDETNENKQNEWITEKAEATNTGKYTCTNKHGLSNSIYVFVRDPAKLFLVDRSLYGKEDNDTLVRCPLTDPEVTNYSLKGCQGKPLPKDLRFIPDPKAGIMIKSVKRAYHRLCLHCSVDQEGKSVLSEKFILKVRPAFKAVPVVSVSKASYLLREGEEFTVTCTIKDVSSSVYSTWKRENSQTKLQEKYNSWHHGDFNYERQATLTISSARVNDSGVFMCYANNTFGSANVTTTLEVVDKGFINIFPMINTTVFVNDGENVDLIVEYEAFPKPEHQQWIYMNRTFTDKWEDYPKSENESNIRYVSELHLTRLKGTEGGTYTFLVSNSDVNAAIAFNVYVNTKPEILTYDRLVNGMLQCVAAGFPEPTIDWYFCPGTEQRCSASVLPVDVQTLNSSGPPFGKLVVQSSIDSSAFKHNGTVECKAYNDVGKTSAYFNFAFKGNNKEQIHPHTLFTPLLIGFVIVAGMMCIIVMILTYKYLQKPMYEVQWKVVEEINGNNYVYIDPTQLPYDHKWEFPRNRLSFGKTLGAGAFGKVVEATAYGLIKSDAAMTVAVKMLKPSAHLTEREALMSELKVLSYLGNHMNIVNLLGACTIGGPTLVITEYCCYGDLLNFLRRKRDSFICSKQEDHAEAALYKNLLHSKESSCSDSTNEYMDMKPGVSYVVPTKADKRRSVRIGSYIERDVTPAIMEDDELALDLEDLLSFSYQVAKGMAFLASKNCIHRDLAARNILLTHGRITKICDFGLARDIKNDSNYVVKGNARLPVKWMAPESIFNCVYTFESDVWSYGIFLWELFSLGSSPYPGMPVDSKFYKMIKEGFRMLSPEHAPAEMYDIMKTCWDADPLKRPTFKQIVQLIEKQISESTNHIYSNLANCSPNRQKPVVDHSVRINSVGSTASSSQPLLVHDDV

Q: With Cn1cc(Nc2ncc(-c3ccc(CC(=O)Nc4ccnc(C5CC5)c4)c(F)c3)cn2)cn1 [Compound P-0098, N-(2-cyclopropyl-4-pyridyl)-2-[2-fluoro-4-[2-[(1-methylpyrazol-4-yl)amino]pyrimidin-5-yl]phenyl]acetamide] as the molecule, how does the IC50 [1] read?
A: 0.0001 to 10 µM

Q: And the IC50 [2]?
A: 0.0001 to 10 µM

Q: For COc1ncc(NC(=O)Cc2ccc(-c3cnc(Nc4cn(C)cn4)nc3)cc2F)cc1C(F)(F)F [Compound P-0101, 2-[2-fluoro-4-[2-[(1-methylimidazol-4-yl)amino]pyrimidin-5-yl]phenyl]-N-[6-methoxy-5-(trifluoromethyl)-3-pyridyl]acetamide], which IC50 [1] is on record?
A: 0.0001 to 10 µM

Q: What about the IC50 [2] of the same molecule?
A: 0.0001 to 10 µM

Q: What does the source list for O=C(Cc1ccc(-c2cnc3[nH]c(-c4ccc(N5CCOCC5)nc4)cc3c2)cn1)Nc1ccnc(C(F)(F)F)c1 [Compound P-0183, 2-[5-[2-(6-morpholino-3-pyridyl)-1H-pyrrolo[2,3-b]pyridin-5-yl]-2-pyridyl]-N-[2-(trifluoromethyl)-4-pyridyl]acetamide]?
A: IC50 [1]: 0.0001 to 10 µM; IC50 [2]: 0.0001 to 10 µM

Q: Which IC50 [1] does the source give for N#Cc1ccc(-c2cc3cc(-c4ccc(CC(=O)Nc5cncc(C(F)(F)F)c5)cc4F)cnc3[nH]2)cn1 [Compound P-0195, 2-[4-[2-(6-cyano-3-pyridyl)-1H-pyrrolo[2,3-b]pyridin-5-yl]-3-fluoro-phenyl]-N-[5-(trifluoromethyl)-3-pyridyl]acetamide] here?
A: 0.0001 to 10 µM

Q: And the IC50 [2]?
A: 0.0001 to 10 µM

Q: With Cn1cc(Nc2ncc(-c3ccc(CC(=O)Nc4cccnc4)cc3)cn2)cn1 [Compound P-0131, 2-[4-[2-[(1-methylpyrazol-4-yl)amino]pyrimidin-5-yl]phenyl]-N-(3-pyridyl)acetamide] as the molecule, how does the IC50 [1] read?
A: 0.0001 to 10 µM

Q: And the IC50 [2]?
A: 0.0001 to 10 µM

Q: For Cn1cnc(Nc2ncc(-c3ccc(CC(=O)Nc4cnc(Cl)c(C(F)(F)F)c4)c(F)c3)cn2)c1 [Compound P-0100, N-[6-chloro-5-(trifluoromethyl)-3-pyridyl]-2-[2-fluoro-4-[2-[(1-methylimidazol-4-yl)amino]pyrimidin-5-yl]phenyl]acetamide], which IC50 [1] is on record?
A: 0.0001 to 10 µM

Q: And the IC50 [2]?
A: 0.0001 to 10 µM

Q: Which IC50 [1] does the source give for Cc1ncc(NC(=O)Cc2ccc(-c3cnc(Nc4cn(C)cn4)nc3)cc2)cc1C(F)(F)F [Compound P-0150, 2-[4-[2-[(1-methylimidazol-4-yl)amino]pyrimidin-5-yl]phenyl]-N-[6-methyl-5-(trifluoromethyl)-3-pyridyl]acetamide] here?
A: 0.0001 to 10 µM

Q: What about the IC50 [2] of the same molecule?
A: 0.0001 to 10 µM

Q: How did the IC50 [1] turn out when COc1cc(NC(=O)Cc2ccc(-c3cnc(Nc4cnn(C)c4)nc3)cc2)ccn1 [Compound P-0153, N-(2-methoxy-4-pyridyl)-2-[4-[2-[(1-methylpyrazol-4-yl)amino]pyrimidin-5-yl]phenyl]acetamide] was run?
A: 0.0001 to 10 µM

Q: And the IC50 [2]?
A: 0.0001 to 10 µM

Q: With Cc1ncc(NC(=O)Cc2ccc(-c3cnc(Nc4cn(C)cn4)nc3)cc2F)cc1C(F)(F)F [Compound P-0099, 2-[2-fluoro-4-[2-[(1-methylimidazol-4-yl)amino]pyrimidin-5-yl]phenyl]-N-[6-methyl-5-(trifluoromethyl)-3-pyridyl]acetamide] as the molecule, how does the IC50 [1] read?
A: 0.0001 to 10 µM

Q: What about the IC50 [2] of the same molecule?
A: 0.0001 to 10 µM

Q: With Cn1cc(Nc2ncc(-c3ccc(CC(=O)Nc4cnc(F)c(C(C)(F)F)c4)c(F)c3)cn2)cn1 [Compound P-0105, N-[5-(1,1-difluoroethyl)-6-fluoro-3-pyridyl]-2-[2-fluoro-4-[2-[(1-methylpyrazol-4-yl)amino]pyrimidin-5-yl]phenyl]acetamide] as the molecule, how does the IC50 [1] read?
A: 0.0001 to 10 µM

Q: What about the IC50 [2] of the same molecule?
A: 0.0001 to 10 µM

Q: Which results are given for COc1cncc(NC(=O)Cc2ccc(-c3cnc(Nc4cnn(C)c4)nc3)cc2)c1 [Compound P-0133, N-(5-methoxy-3-pyridyl)-2-[4-[2-[(1-methylpyrazol-4-yl)amino]pyrimidin-5-yl]phenyl]acetamide]?
A: IC50 [1]: 0.0001 to 10 µM; IC50 [2]: 0.0001 to 10 µM

Q: For CCn1cc(Nc2ncc(-c3ccc(CC(=O)Nc4cnc(Cl)c(C(F)(F)F)c4)cc3)cn2)cn1 [Compound P-0165, N-[6-chloro-5-(trifluoromethyl)-3-pyridyl]-2-[4-[2-[(1-ethylpyrazol-4-yl)amino]pyrimidin-5-yl]phenyl]acetamide], which IC50 [1] is on record?
A: 0.0001 to 10 µM

Q: And the IC50 [2]?
A: 0.0001 to 10 µM

Q: Cn1cc(Nc2ncc(-c3ccc(CC(=O)Nc4cccc(C(C)(C)C#N)c4)cc3)cn2)cn1 [Compound P-0158, N-[3-(1-cyano-1-methyl-ethyl)phenyl]-2-[4-[2-[(1-methylpyrazol-4-yl)amino]pyrimidin-5-yl]phenyl]acetamide] was tested. Which IC50 [1] did it give?
A: 0.0001 to 10 µM

Q: And the IC50 [2]?
A: 0.0001 to 10 µM

Q: O=C(Cc1ccc(-c2cnc3[nH]c(-c4ccccc4)cc3c2)c(F)c1)Nc1cccc(C(F)(F)F)c1 [Compound P-0003, 2-[3-fluoro-4-(2-phenyl-1H-pyrrolo[2,3-b]pyridin-5-yl)phenyl]-N-[3-(trifluoromethyl)phenyl]acetamide] was tested. Which IC50 [2] did it give?
A: 0.0001 to 10 µM

Q: With O=C(Cc1ccc(-c2cnc3[nH]c(-c4cnn(C(F)F)c4)cc3c2)c(F)c1)Nc1cncc(C(F)(F)F)c1 [Compound P-0197, 2-[4-[2-[1-(difluoromethyl)pyrazol-4-yl]-1H-pyrrolo[2,3-b]pyridin-5-yl]-3-fluoro-phenyl]-N-[5-(trifluoromethyl)-3-pyridyl]acetamide] as the molecule, how does the IC50 [2] read?
A: 0.0001 to 10 µM

Q: Which IC50 [2] does the source give for Cc1ncc(NC(=O)Cc2ccc(-c3cnc4[nH]nc(C)c4c3)c(F)c2)cc1C(F)(F)F [Compound P-0172, 2-[3-fluoro-4-(3-methyl-1H-pyrazolo[3,4-b]pyridin-5-yl)phenyl]-N-[6-methyl-5-(trifluoromethyl)-3-pyridyl]acetamide] here?
A: 0.0001 to 10 µM

Q: Which IC50 [2] does the source give for Cc1cc(-c2cnc3[nH]c(-c4ccccc4)cc3c2)ccc1CC(=O)Nc1cccc(C(F)(F)F)c1 [Compound P-0001, 2-[2-methyl-4-(2-phenyl-1H-pyrrolo[2,3-b]pyridin-5-yl)phenyl]-N-[3-(trifluoromethyl)phenyl]acetamide] here?
A: 0.0001 to 10 µM

Q: With O=C(Cc1ccc(-c2cnc3[nH]c(-c4ccc(N5CCOCC5)nc4)cc3c2)c(F)c1)Nc1cc(C(F)(F)F)ccn1 [Compound P-0192, 2-[3-fluoro-4-[2-(6-morpholino-3-pyridyl)-1H-pyrrolo[2,3-b]pyridin-5-yl]phenyl]-N-[4-(trifluoromethyl)-2-pyridyl]acetamide] as the molecule, how does the IC50 [2] read?
A: 0.0001 to 10 µM

Q: Which IC50 [2] does the source give for Cn1cc(Nc2ncc(-c3ccc(CC(=O)Nc4cc(Cl)c(C5CC5)cn4)cc3)cn2)cn1 [Compound P-0164, N-(4-chloro-5-cyclopropyl-2-pyridyl)-2-[4-[2-[(1-methylpyrazol-4-yl)amino]pyrimidin-5-yl]phenyl]acetamide] here?
A: 0.0001 to 10 µM

Q: With O=C(Cc1ccc(-c2cnc3[nH]c(-c4ccccc4)cc3c2)cc1F)Nc1ccnc(C(F)(F)F)c1 [Compound P-0004, 2-[2-fluoro-4-(2-phenyl-1H-pyrrolo[2,3-b]pyridin-5-yl)phenyl]-N-[2-(trifluoromethyl)-4-pyridyl]acetamide] as the molecule, how does the IC50 [2] read?
A: 0.0001 to 10 µM

Q: For COc1ccc(-c2cc3cc(-c4ccc(CC(=O)Nc5cc(C(F)(F)F)ccn5)cc4F)cnc3[nH]2)cn1 [Compound P-0191, 2-[3-fluoro-4-[2-(6-methoxy-3-pyridyl)-1H-pyrrolo[2,3-b]pyridin-5-yl]phenyl]-N-[4-(trifluoromethyl)-2-pyridyl]acetamide], which IC50 [2] is on record?
A: 0.0001 to 10 µM
